Test results published in patent US7109333B2, “Heterocyclic compounds” (SmithKline Beecham Corporation, priority 1998, dated 2006).
pIC50: −log10 of the molar value. Structures can show the parent of a compound that is named as a salt.

Assays:
c-erbB-2 = biological target: T1, c-erbB-2 (Homo sapiens, UniProt P04626); assay: Substrate phosphorylation assay, erbB2, assay (b) (SPA, 33P-ATP); format: biochemical; conditions: Tables 1A and 1B
T1 construct: baculovirus expressed, recombinant constructs of the intracellular domains of c-erbB-2 and c-erbB-4; made in house
Text: (§1) The substrate phosphorylation assays use baculovirus expressed, recombinant constructs of the intracellular domains of c-erbB-2 and c-erbB-4 that are constitutively active and EGFr isolated from solubilised A431 cell membranes. The method measures the ability of the isolated enzymes to catalyse the transfer of the g-phosphate from ATP onto tyrosine residues in a biotinylated synthetic peptide (Biotin-[…]. Substrate phosphorylation was detected following either of the following two procedures: a.) c-ErbB-2, c-ErbB4 or EGFr were incubated for 30 minutes, at room temperature, with 10 mM MnCl2, 10 mM ATP, 5 mM peptide, and test compound (diluted from a 5 mM stock in DMSO, final DMSO concentration is 2%) in 40 mM HEPES buffer, pH 7.4. The reaction was stopped by the addition of EDTA (final concentration 0.15 mM) and a sample was transferred to a streptavidin-coated 96-well plate. The plate was washed and the level of phosphotyrosine on the peptide was determined using a Europium-labelled antiphosphotyrosine antibody and quantified with a time-resolved fluorescence technique. b.) ErbB2 was incubated for 50 minutes at room temperature with 15 mM MnCl2, 2 mM ATP, 0.25 mCi [γ-^33P] ATP/well, 5 mM peptide substrate, and test compound (diluted from a 10 mM stock in DMSO, final DMSO concentration is 2%) in 50 mM MOPS pH 7.2. The reaction was terminated by the addition of […] of PBS containing 2.5 mg/ml streptavidin-coated SPA beads (Amersham Inc.), 50 mM ATP, 10 mM EDTA and 0.1% TX-100. The microtitre plates were sealed and SPA beads were allowed to settle for at least six hours. The SPA signal was measured using a Packard Topcount 96-well plate scintillation counter (Packard Instrument Co., Meriden, Conn.).

[1] = biological target: T2, EGFr isolated from solubilised A431 cell membranes (Homo sapiens, UniProt P00533); assay: Substrate phosphorylation assay, EGF-r, assay (a) (time-resolved fluorescence); format: biochemical
T2 construct: EGFr isolated from solubilised A431 cell membranes; endogenous in cells; host or cells: A431 cell membranes (solubilised)
Text: as §1

[2] = test system: HB4a c5.2 (HB4a transfected with human c-erbB2 cDNA); assay: Methylene blue growth inhibition assay, HB4a erbB2; format: cell-based; conditions: 72 h, HB4a c5.2, 3 days, read-out: Cell Proliferation HB4a erbB2, IC50
Method: (§2) Human breast (BT474), head and neck (HN5) and gastric tumor (N87) cell lines were cultured in low glucose DMEM (Life Technologies 12320–032) containing 10% fetal bovine serum (FBS) at 37° C. in a humidified 10% CO2, 90% air incubator. The SV40 transformed human mammary epithelial cell line HB4a was transfected with either human H-ras cDNA (HB4a r4.2) or the human c-erbB2 cDNA (HB4a c5.2). The HB4a clones were cultured in RPMI containing 10% FBS, insulin (5 μg/ml), hydrocortisone (5 μg/ml), supplemented with the selection agent hygromycin B (50 μg/ml). Cells were harvested using trypsin/EDTA, counted using a haemocytometer, and plated in […] of the appropriate media, at the following densities, in a 96-well tissue culture plate (Falcon 3075): BT474 10,000 cells/well, HN5 3,000 cells/well, N87 10,000 cells/well, HB4a c5.2 3,000 cells/well, HB4a r4.2 3,000 cells/well. The next day, compounds were diluted in DMEM containing […] gentamicin, at twice the final required concentration, from 10 mM stock solutions in DMSO. […] of these dilutions were added to the […] of media currently on the cell plates. Medium containing 0.6% DMSO was added to control wells. Compounds diluted in DMEM were added to all cell lines, including the HB4a r4.2 and HB4a c5.2 cell lines. The final concentration of DMSO in all wells was 0.3%. Cells were incubated at 37° C., 10% CO2 for 3 days. Medium was removed by aspiration. Cell biomass was estimated by staining cells with 100 μl per well methylene blue (Sigma M9140, 0.5% in 50:50 ethanol:water), and incubation at room temperature for at least 30 minutes. Stain was removed, and the plates rinsed under a gentle stream of water, and air-dried. To release stain from the cells 100 μl of solubilization solution was added (1% N-lauroyl sarcosine, Sodium salt, Sigma L5125, in PBS), and plates were shaken gently for about 30 minutes. Optical density at 620 nm was measured on a microplate reader. Percent inhibition of cell growth was calculated relative to vehicle treated control wells. Concentration of compound that inhibits 50% of cell growth (IC50) was interpolated using nonlinear regression (Levenberg-Marquardt) and the equation, y=Vmax*(1−(x/(K+x)))+Y2, where “K” was equal to the IC50.

[3] = test system: HB4a r4.2 (HB4a transfected with human H-ras cDNA); assay: Methylene blue growth inhibition assay, HB4a ras; format: cell-based; conditions: 72 h, HB4a r4.2, 3 days, read-out: Cell Proliferation HB4a ras, IC50
Method: as §2

[4] = test system: BT474 breast tumor cell line; assay: Methylene blue growth inhibition assay, BT474; format: cell-based; conditions: Homo sapiens, BT-474, 72 h; BT474, 3 days; read-out: Cell Proliferation BT474, IC50
Method: as §2

[5] = test system: HN5 head and neck tumor cell line; assay: Methylene blue growth inhibition assay, HN5; format: cell-based; conditions: Homo sapiens, 72 h; HN5, 3 days; read-out: Cell Proliferation HN5, IC50
Method: as §2

[6] = test system: N87 gastric tumor cell line; assay: Methylene blue growth inhibition assay, N87; format: cell-based; conditions: Homo sapiens, 72 h; N87, 3 days; read-out: Cell Proliferation N87, IC50
Method: as §2

[7] = Major metabolites: liver S-9 homogenate incubation, LC-MS metabolite identification; format: in vitro ADME, Sprague Dawley rat and human; conditions: liver S-9 (rat, human), 10 μM, 60 min, 37° C.
Method: Liver S-9 homogenates (5 mg/mL protein concentration) from prepared pooled male Sprague Dawley rat livers and pooled human livers (XenoTech, LLC, Kansas City, Kans.) were incubated in 96-well polypropylene plates with representative examples selected from examples 1 to 40 (10 μM) in a total volume of 0.5 mL. Stock solutions of these compounds were prepared in DMSO at a concentration of 1 mM to maintain a <1% final DMSO concentration for each reaction. Enzymatic incubations contained cofactors (5.71 mM NADPH, 7.14 mM glucose-6-phosphate, 7.14 mM UDPGA, 47.1 mM potassium chloride, and 11.4 mM magnesium chloride in 0.1 M potassium phosphate buffer, pH 7.4). Control samples were aspirated from the reaction samples at time zero and placed immediately into 2 volumes of ice-chilled acetonitrile. Sample reaction plates were incubated for 60 min in a shaker incubator maintained at 37° C. supplied with O2. Reactions were terminated by addition of 2 volumes of ice-chilled acetonitrile. All samples were vortexed and centrifuged at 2000×g for 10 min. The supernatant was removed and analyzed by LC-MS. The metabolite identification work was done by using reversed-phase HPLC coupled with ion-trap mass spectroscopy.

T2 sequence (P00533 25-1210): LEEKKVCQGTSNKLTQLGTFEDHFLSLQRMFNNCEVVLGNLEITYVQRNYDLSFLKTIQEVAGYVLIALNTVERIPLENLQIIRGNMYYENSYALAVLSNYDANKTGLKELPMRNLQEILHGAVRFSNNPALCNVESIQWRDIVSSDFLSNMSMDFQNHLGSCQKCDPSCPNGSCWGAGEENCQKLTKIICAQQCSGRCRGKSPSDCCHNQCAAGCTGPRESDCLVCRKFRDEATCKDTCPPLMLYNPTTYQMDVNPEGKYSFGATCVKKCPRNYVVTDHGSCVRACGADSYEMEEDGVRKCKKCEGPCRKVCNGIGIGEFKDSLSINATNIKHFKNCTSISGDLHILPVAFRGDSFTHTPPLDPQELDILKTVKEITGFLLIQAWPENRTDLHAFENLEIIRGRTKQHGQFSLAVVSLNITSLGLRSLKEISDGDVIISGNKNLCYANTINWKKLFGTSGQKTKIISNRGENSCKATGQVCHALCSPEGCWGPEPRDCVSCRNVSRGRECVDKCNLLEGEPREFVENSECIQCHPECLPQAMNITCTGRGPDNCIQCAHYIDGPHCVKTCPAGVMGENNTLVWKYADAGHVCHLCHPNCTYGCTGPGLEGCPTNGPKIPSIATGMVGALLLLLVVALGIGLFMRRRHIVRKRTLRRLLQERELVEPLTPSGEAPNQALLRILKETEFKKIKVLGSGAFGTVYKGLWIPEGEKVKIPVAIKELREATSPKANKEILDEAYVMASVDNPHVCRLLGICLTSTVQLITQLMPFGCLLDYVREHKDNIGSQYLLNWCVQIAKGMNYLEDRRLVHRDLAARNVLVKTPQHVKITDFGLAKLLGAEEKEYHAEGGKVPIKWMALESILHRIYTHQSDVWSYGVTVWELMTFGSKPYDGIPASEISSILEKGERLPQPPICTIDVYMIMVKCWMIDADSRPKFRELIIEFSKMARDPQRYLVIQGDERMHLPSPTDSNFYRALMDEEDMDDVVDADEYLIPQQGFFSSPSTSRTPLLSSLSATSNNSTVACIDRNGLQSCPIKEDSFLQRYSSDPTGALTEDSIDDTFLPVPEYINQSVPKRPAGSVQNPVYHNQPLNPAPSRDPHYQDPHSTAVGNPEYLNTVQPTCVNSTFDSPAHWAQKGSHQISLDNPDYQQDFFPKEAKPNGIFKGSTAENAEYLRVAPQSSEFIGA
T1 sequence (P04626 676-1255 limits assumed): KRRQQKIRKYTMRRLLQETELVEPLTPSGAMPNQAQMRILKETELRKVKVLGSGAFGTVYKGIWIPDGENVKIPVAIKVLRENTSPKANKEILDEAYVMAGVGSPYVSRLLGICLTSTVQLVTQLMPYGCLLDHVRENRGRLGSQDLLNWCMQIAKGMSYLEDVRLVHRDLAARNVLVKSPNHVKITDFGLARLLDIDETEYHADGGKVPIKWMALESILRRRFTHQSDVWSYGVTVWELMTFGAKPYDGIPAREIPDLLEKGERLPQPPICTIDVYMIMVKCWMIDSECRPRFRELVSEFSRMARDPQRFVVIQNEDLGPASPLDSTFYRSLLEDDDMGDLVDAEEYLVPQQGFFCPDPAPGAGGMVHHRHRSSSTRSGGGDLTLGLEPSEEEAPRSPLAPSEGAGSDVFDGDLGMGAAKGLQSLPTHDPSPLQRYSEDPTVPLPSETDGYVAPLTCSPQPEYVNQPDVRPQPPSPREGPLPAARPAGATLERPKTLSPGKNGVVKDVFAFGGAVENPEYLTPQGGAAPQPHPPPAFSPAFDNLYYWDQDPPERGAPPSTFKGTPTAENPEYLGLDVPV

| pIC50 (c-erbB-2) | pIC50 [1] | pIC50 [4] | pIC50 [5] | pIC50 [6] | identified as a major metabolite of N-[4-(benzyloxy)phenyl]-6-[4-({[2-(methanesulphonyl)ethyl]amino}methyl)-2-furyl]-4-quinazolinamine (Example 11) [7] | Structure (SMILES) | pIC50 [2] | pIC50 [3] |
| --- | --- | --- | --- | --- | --- | --- | --- | --- |
| > 7.00 |  | > 5.30 | > 5.30 | > 5.30 |  | CS(=O)(=O)CCNCc1ccc(-c2cc3c(Nc4ccc(OCc5ccccc5)cc4)ncnc3cc2F)o1 [Example 34, N-[4-(Benzyloxy)phenyl]-7-fluoro-6-[5-({[2-(methanesulphonyl)ethyl]amino}methyl)-2-furyl]-4-quinazolinamine] | > 5.30 | < 4.30 |
| > 7.00 |  | > 5.30 | > 5.30 | > 5.30 |  | CS(=O)(=O)CCNCc1ccc(-c2cc3c(Nc4ccc5c(cnn5Cc5ccccc5)c4)ncnc3cc2F)o1 [Example 35] | > 5.30 | 4.30 to 4.60 |
| > 7.00 |  | 4.60 to 5.30 | 4.60 to 5.30 | 4.60 to 5.30 |  | CS(=O)(=O)CCNCc1ccc(-c2cc3c(Nc4ccc(S(=O)(=O)c5ccccc5)cc4)ncnc3cc2F)o1 [Example 36, N-[4-(Phenylsulphonyl)phenyl]-7-fluoro-6-[5-({[2-(methanesulphonyl)ethyl]amino]methyl)-2-furyl]-4-quinazolinamine] | 4.60 to 5.30 | < 4.30 |
| > 7.00 |  | > 5.30 | > 5.30 | > 5.30 |  | CS(=O)(=O)CCNCc1ccc(-c2ccc3ncnc(Nc4ccc(OCc5ccccc5)c(C(F)(F)F)c4)c3c2)o1 [Example 37] | > 5.30 | 4.30 to 4.60 |
|  |  |  |  |  | identified as a major metabolite | NCc1coc(-c2ccc3ncnc(Nc4ccc(OCc5ccccc5)cc4)c3c2)c1 [N-[4-(Benzyloxy)phenyl]-6-[4-(aminomethyl)-2-furyl]-4-quinazolinamine] |  |  |

Further lines, the molecule ahead of its results:

| Structure (SMILES) | pIC50 (c-erbB-2) | pIC50 [1] | pIC50 [4] | pIC50 [5] | pIC50 [6] | identified as a major metabolite of N-[4-(benzyloxy)phenyl]-6-[4-({[2-(methanesulphonyl)ethyl]amino}methyl)-2-furyl]-4-quinazolinamine (Example 11) [7] | pIC50 [2] | pIC50 [3] |
| --- | --- | --- | --- | --- | --- | --- | --- | --- |
| CS(=O)(=O)CCNCc1ccc(-c2cc3c(Nc4ccc(OCc5ccc(F)cc5)cc4)ncnc3cn2)o1 [Example 1, (4-(4-Fluorobenzyloxy)-phenyl)-(6-(5-((2-methanesulphonyl-ethylamino)methyl)-furan-2-yl)-pyrido[3,4-d]pyrimidin-4-yl)-amine dihydrochloride] | > 7.00 | > 7.00 | > 5.30 | > 5.30 | > 5.30 |  | > 5.30 | 4.30 to 4.60 |
| CS(=O)(=O)CCNCc1ccc(-c2cc3c(Nc4ccc(OCc5cccc(F)c5)cc4)ncnc3cn2)o1 [Example 2, (4-(3-Fluorobenzyloxy)-phenyl)-(6-(5-((2-methanesulphonyl-ethylamino)methyl)-furan-2-yl)-pyrido[3,4-d]pyrimidin-4-yl)-amine dihydrochloride] | > 7.00 | > 7.00 | > 5.30 | > 5.30 | > 5.30 |  | > 5.30 | 4.30 to 4.60 |
| CS(=O)(=O)CCNCc1ccc(-c2cc3c(Nc4ccc(S(=O)(=O)c5ccccc5)cc4)ncnc3cn2)o1 [Example 3, (4-Benzenesulphonyl-phenyl)-(6-(5-((2-methanesulphonyl-ethylamino)-methyl)-furan-2-yl)-pyrido[3,4-d]pyrimidin-4-yl)-amine dihydrochloride] | > 7.00 | > 7.00 | > 5.30 | > 5.30 | > 5.30 |  | > 5.30 | 4.30 to 4.60 |
| CS(=O)(=O)CCNCc1cccc(-c2cc3c(Nc4ccc(OCc5ccccc5)cc4)ncnc3cn2)c1 [Example 4, (4-Benzyloxy-phenyl)-(6-(3-((2-methanesulphonyl-ethylamino)-methyl)-phenyl)-pyrido[3,4-d]pyrimidin-4-yl)-amine dihydrochloride] | 6.00 to 7.00 | > 7.00 | > 5.30 | > 5.30 | > 5.30 |  | > 5.30 | < 4.30 |
| CS(=O)(=O)CCNCc1ccc(-c2ccc3ncnc(Nc4ccc(OCc5ccccc5)cc4)c3c2)o1 [Example 5, (4-Benzyloxyphenyl)-(6-(5-((2-methanesulphonyl-ethylamino)-methyl)-furan-2-yl)-quinazolin-4-yl)-amine dihydrochloride] | > 7.00 | > 7.00 | > 5.30 | > 5.30 | > 5.30 |  | > 5.30 | < 4.30 |
| CS(=O)(=O)CCNCc1nc(-c2ccc3ncnc(Nc4ccc(OCc5ccccc5)cc4)c3c2)cs1 [Example 7, (4-Benzyloxy-phenyl)-(6-(2-((2-methanesulphonyl-ethylamino)-methyl)-thiazol-4-yl)-quinazolin-4-yl)-amine dihydrochloride] | > 7.00 | > 7.00 | > 5.30 | > 5.30 | > 5.30 |  | > 5.30 | 4.60 to 5.30 |
